Tests used:
[1] = Study on pharmacokinetics (PK) in rats; type: in vivo, male SD rats; details: PO, 5 mg/kg
Method: A sample of crystalline form A was administered to male SD rats by intragastric route (PO) to investigate its pharmacokinetic characteristics. The dose was 5 mg/kg, and 0.5% MC (methylcellulose sodium) was used as a solvent to prepare a suspension of crystalline form A. In the administration group, whole blood samples were collected before PO administration (0 h) and at time points of 0.083, 0.17, 0.25, 0.5, 1, 2, 4, 6, 8 and 24 hours after administration. The whole blood samples were anticoagulated with EDTA.K2, and plasma samples were obtained after centrifugation and stored at −80° C. for later testing. In this experiment, there were three animals in each group for parallel testing.
The plasma samples were treated by precipitating protein and then analyzed by LC-MS/MS. Using WinNonlin 6.3 software, the pharmacokinetic parameters was calculated by means of the non-compartmental model, and the results were shown in Table 1.

[2] = High temperature stability test (purity by HPLC, XRPD); type: physicochemical; details: 60° C.; for Purity: sealed glass bottle
Method: (§1) In this experimental example, the chemical stability of crystalline form A was studied by high temperature and high humidity test.
(§2) Method for testing purity: high performance liquid chromatography (Chinese Pharmacopoeia, 2015 Edition, Four General Rules 0512) was used to test purify.
(§3) Chromatographic column: phenyl bonded silica gel was used as filler;
(§4) Mobile phase A: 5 mM ammonium acetate (pH 4.0);
(§5) Mobile phase B: Acetonitrile (containing 0.05% acetic acid);
(§6) Detection wavelength: 230 nm.
(§7) Elution condition: gradient elution.
The crystalline form A was placed in a sealed and clean glass bottle, and then the glass bottle was placed in a 60° C. constant temperature drying oven, and samples were taken on the […] and the 30th day, respectively, to detect impurity contents, and the purity results were shown in Table 2.

[3] = High humidity stability test (purity by HPLC, XRPD); type: physicochemical; details: 25±2° C., 92.5% RH; for Purity: open dish
Method: as §1, §2, §3, §4, §5, §6, §7
The crystalline form A of the compound of Formula I was evenly spread into an open culture dish with a thickness of ≤5 mm, and placed in a constant temperature incubator at room temperature (25±2° C.) and relative humidity of 92.5% RH. […]

[4] = target: T1, PPAR δ (Homo sapiens, UniProt Q03181); details: statement in words; tests disclosed in WO2019105234A1; cited from earlier work
T1 sequence (Q03181 1-441): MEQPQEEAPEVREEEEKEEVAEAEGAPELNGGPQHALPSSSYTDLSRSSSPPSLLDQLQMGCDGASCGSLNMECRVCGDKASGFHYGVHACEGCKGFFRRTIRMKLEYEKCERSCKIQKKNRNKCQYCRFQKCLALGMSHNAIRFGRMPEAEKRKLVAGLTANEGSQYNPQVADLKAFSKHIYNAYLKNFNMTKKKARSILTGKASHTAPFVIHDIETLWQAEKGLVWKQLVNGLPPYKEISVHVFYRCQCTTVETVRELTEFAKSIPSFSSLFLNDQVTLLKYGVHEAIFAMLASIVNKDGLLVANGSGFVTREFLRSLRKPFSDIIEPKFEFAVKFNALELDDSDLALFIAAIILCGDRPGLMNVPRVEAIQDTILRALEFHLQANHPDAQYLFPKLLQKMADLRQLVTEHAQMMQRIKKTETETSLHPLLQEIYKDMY

[5] = test system: HepG2 cells; details: statement in words; tests disclosed in WO2019105234A1; cited from earlier work
[6] = test system: HEK293 cells; details: statement in words; tests disclosed in WO2019105234A1; cited from earlier work
[7] = target: hERG (Homo sapiens, UniProt Q12809); details: statement in words; tests disclosed in WO2019105234A1; cited from earlier work
Sequence of hERG (Q12809 whole entry): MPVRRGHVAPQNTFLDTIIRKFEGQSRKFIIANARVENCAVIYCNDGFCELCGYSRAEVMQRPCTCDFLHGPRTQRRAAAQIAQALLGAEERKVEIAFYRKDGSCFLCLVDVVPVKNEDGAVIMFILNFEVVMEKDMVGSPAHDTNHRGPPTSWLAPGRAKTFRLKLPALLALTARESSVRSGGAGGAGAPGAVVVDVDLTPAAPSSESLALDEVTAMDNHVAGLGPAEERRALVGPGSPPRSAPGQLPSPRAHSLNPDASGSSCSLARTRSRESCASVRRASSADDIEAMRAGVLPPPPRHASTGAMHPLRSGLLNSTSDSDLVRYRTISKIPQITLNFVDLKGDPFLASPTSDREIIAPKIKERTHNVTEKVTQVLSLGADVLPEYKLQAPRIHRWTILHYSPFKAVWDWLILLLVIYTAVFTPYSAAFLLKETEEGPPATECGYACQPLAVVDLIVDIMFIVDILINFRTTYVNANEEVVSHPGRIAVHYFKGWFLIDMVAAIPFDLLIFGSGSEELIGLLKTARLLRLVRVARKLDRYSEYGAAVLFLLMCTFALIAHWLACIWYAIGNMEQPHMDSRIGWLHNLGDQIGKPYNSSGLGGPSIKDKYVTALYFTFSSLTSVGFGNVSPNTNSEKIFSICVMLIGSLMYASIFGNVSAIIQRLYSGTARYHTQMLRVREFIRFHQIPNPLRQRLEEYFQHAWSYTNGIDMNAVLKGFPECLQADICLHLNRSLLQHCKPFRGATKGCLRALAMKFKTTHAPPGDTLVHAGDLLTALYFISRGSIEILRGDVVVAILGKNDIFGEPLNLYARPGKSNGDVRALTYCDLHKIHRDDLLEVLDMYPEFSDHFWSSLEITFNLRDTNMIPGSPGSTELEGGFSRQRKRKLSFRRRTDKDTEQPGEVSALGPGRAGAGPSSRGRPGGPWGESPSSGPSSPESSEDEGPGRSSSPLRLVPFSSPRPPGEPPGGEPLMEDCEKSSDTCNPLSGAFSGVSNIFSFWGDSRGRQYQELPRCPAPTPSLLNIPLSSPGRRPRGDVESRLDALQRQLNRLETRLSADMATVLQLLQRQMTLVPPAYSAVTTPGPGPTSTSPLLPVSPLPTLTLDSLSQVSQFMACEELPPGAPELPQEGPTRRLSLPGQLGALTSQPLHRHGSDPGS

[8] = rat, male SD rats, suspension in 0.5% MC, plasma

exposure in rat plasma [1]: better exposure
AUC(0-t) [1, 8]: 777 ng·h/mL
Cmax [1, 8]: 522 ng/mL
change of crystalline form by XRPD ([2]; after 30 days of storage): did not change
Purity ([2]; 0th day): 99.51%
Purity ([2]; 10th day): 99.53%
Purity ([2]; 30th day): 99.54%
change of purity under high temperature conditions ([2]; up to 30 days): no significant change
change of crystalline form by XRPD ([3]; after 30 days of storage): did not change
Purity ([3]; 0th day): 99.51%
Purity ([3]; 10th day): 99.53%
Purity ([3]; 30th day): 99.54%
change of purity under high humidity conditions ([3]; up to 30 days): no significant change
SMILES: COc1nc2ccccc2cc1C(=O)/C=C/c1cc(C)c(OC(C)(C)C(=O)O)c(C)c1 [crystalline form A, (E)-2-(4-(3-(2-methoxyquinolin-3-yl)-3-oxo-1-propen-1-yl)-2,6-dimethylphenoxy)-2-methyl-propionic acid]
agonistic effect on PPAR δ [4]: obvious agonistic effect
toxicity to HepG2 cells [5]: low toxicity
toxicity to HEK293 cells [6]: low toxicity
inhibitory effect on hERG [7]: no obvious inhibitory effect

From patent US20220220075A1, “SOLID FORM OF AROMATIC COMPOUND AND PREPARATION METHOD THEREFOR” (Sichuan Kelun-Biotech Biopharmaceutical Co., Ltd., priority 2019, published 2022)
